This is an account of results in PubChem BioAssay AID330 (DTP/NCI, 2004).

The test system of this assay is P388 leukemia ip, CD2F1 mice, survival T/C. The assay is described as follows: NCI In Vivo Anticancer Drug Screen. Data for tumor model P388 Leukemia (intraperitoneal) in CD2F1 (CDF1) mice. To be noted: endpoint: median survival time, higher = longer survival. In short, it runs like this: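 Mice carrying the transplanted tumor received test compound or vehicle. Survival was recorded in each group, and the value is the treated-group measurement divided by that of the vehicle-treated control group.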

Where [1] appears, read: dose: 50.0 mg/kg/injection, schedule: Q01DX009 (ip), vehicle: saline.
The mark [2] stands for this setting: dose: 12.5 mg/kg/injection, schedule: Q01DX009 (ip), vehicle: Klucel (hydroxypropylcellulose) (HPC).

Where “and” joins values, the source holds several entries; their conditions need not be identical. Equal values may be shown once. Toxic doses and inconclusive results are not listed.

For the compound `C[C@@H]1C[C@](O)([C@@H](C)Cl)C(=O)O[C@@H]2CCN3CC=C(COC(=O)[C@]1(C)O)[C@H]23`, the T/C is 104 % of control (dose: 2.75 mg/kg/injection, schedule: Q01DX009 (ip), vehicle: saline); 103 % of control (dose: 3.75 mg/kg/injection, schedule: Q01DX009 (ip), vehicle: saline); 104 % of control (dose: 5.5 mg/kg/injection, schedule: Q01DX009 (ip), vehicle: saline); 106 % of control (dose: 7.5 mg/kg/injection, schedule: Q01DX009 (ip), vehicle: saline); 113 % of control (dose: 11.0 mg/kg/injection, schedule: Q01DX009 (ip), vehicle: saline); 95 % of control (dose: 15.0 mg/kg/injection, schedule: Q01DX009 (ip), vehicle: saline). For the same compound, the T/C by setting is: (dose: 22.0 mg/kg/injection, schedule: Q01DX009 (ip), vehicle: saline) 104 % of control; (dose: 30.0 mg/kg/injection, schedule: Q01DX009 (ip), vehicle: saline) 106 % of control.

As to `COC(=O)CCc1cc(=O)oc2c(I)c(O)cc(O)c12`, the T/C runs as follows: (dose: 8.75 mg/kg/injection, schedule: Q01DX005 (ip), vehicle: Klucel (hydroxypropylcellulose) (HPC)) 99 % of control; (dose: 17.5 mg/kg/injection, schedule: Q01DX005 (ip), vehicle: Klucel (hydroxypropylcellulose) (HPC)) 93 % of control; (dose: 35.0 mg/kg/injection, schedule: Q01DX005 (ip), vehicle: Klucel (hydroxypropylcellulose) (HPC)) 101 % of control.

For `CCCN(CCC)CCCOC(=O)c1ccc2oc3ccc(C(=O)OCCCN(CCC)CCC)cc3c2c1`, the T/C under setting [1] was 103 % of control and the T/C (dose: 100.0 mg/kg/injection, schedule: Q01DX009 (ip), vehicle: saline) is 106 % of control.

With `CCc1ccc(O)c(CN2CCN(Cc3cc(CC)ccc3O)CC2)c1`, the T/C is 89 % of control (dose: 15.0 mg/kg/injection, schedule: Q01DX005 (ip), vehicle: saline with Tween-80) and 86 % of control (dose: 30.0 mg/kg/injection, schedule: Q01DX005 (ip), vehicle: saline with Tween-80).

For the compound `COCCCN1CC(=O)N2Cc3ccccc3CN2C(=O)C1`, the T/C is, setting by setting: (dose: 50.0 mg/kg/injection, schedule: Q01DX005 (ip), vehicle: saline with Tween-80) 98 % of control; (dose: 100.0 mg/kg/injection, schedule: Q01DX005 (ip), vehicle: saline with Tween-80) 98 % of control; (dose: 200.0 mg/kg/injection, schedule: Q01DX005 (ip), vehicle: saline with Tween-80) 103 % of control.

For the compound `C=CCNC(=O)c1cc(N2CC2)c([N+](=O)[O-])cc1[N+](=O)[O-]`, under setting [2], the T/C is 91 % of control and 97 % of control.

As to `CC1(C)C/C(=C\c2ccc([N+](=O)[O-])cc2)C(=O)c2ccccc21`, the T/C (dose: 25.0 mg/kg/injection, schedule: Q01DX009 (ip), vehicle: Klucel (hydroxypropylcellulose) (HPC)) was 99 % of control; the T/C (dose: 50.0 mg/kg/injection, schedule: Q01DX009 (ip), vehicle: Klucel (hydroxypropylcellulose) (HPC)) is 100 % of control; the T/C (dose: 100.0 mg/kg/injection, schedule: Q01DX009 (ip), vehicle: Klucel (hydroxypropylcellulose) (HPC)) was 99 % of control; the T/C (dose: 200.0 mg/kg/injection, schedule: Q01DX009 (ip), vehicle: Klucel (hydroxypropylcellulose) (HPC)) is 98 % of control; the T/C (dose: 400.0 mg/kg/injection, schedule: Q01DX009 (ip), vehicle: Klucel (hydroxypropylcellulose) (HPC)) was 88 % of control.

As to `CC(=O)OC1=C(C)[C@@H]2CC(=O)O[C@@H]3C[C@H]4[C@H](C)C[C@H](O)[C@H](O)[C@]4(C)[C@@H](C1=O)[C@@]32C`, the T/C reads like this: (dose: 0.5 mg/kg/injection, schedule: Q01DX005 (ip), vehicle: saline + alcohol) 101 % of control; (dose: 1.0 mg/kg/injection, schedule: Q01DX005 (ip), vehicle: saline + alcohol) 103 % of control; (dose: 2.0 mg/kg/injection, schedule: Q01DX005 (ip), vehicle: saline + alcohol) 115 % of control; (dose: 4.0 mg/kg/injection, schedule: Q01DX005 (ip), vehicle: saline + alcohol) 111 % of control; (dose: 8.0 mg/kg/injection, schedule: Q01DX005 (ip), vehicle: saline + alcohol) 115 % of control; (dose: 16.0 mg/kg/injection, schedule: Q01DX005 (ip), vehicle: saline + alcohol) 101 % of control. In addition, the T/C (dose: 32.0 mg/kg/injection, schedule: Q01DX005 (ip), vehicle: saline + alcohol) was 94 % of control.

With `O=[N+]([O-])c1nccn1C1OC(CO)C(O)C1O` (configuration not stated), the T/C (dose: 6.25 mg/kg/injection, schedule: Q01DX009 (ip), vehicle: saline) was 98 % of control; the T/C (dose: 12.5 mg/kg/injection, schedule: Q01DX009 (ip), vehicle: saline) is 99 % of control; the T/C (dose: 25.0 mg/kg/injection, schedule: Q01DX009 (ip), vehicle: saline) is 104 % of control; the T/C under setting [1] is 104 % of control.

For `CC(=O)OCc1ccc(/C=c2/[nH]c(=O)/c(=C\c3ccc(COC(C)=O)o3)[nH]c2=O)o1`, the T/C (dose: 12.5 mg/kg/injection, schedule: Q01DX009 (ip), vehicle: distilled water + Tween-80) was 88 % of control; the T/C (dose: 25.0 mg/kg/injection, schedule: Q01DX009 (ip), vehicle: distilled water + Tween-80) is 90 % of control; the T/C (dose: 50.0 mg/kg/injection, schedule: Q01DX009 (ip), vehicle: distilled water + Tween-80) is 96 % of control; the T/C (dose: 100.0 mg/kg/injection, schedule: Q01DX009 (ip), vehicle: distilled water + Tween-80) was 114 % of control; the T/C (dose: 200.0 mg/kg/injection, schedule: Q01DX009 (ip), vehicle: distilled water + Tween-80) was 99 % of control.

`Oc1c(Cl)cc(Cl)cc1CN1CCCCC1`: the T/C (dose: 50.0 mg/kg/injection, schedule: Q01DX009 (ip), vehicle: suspension in saline) is 91 % of control; the T/C (dose: 100.0 mg/kg/injection, schedule: Q01DX009 (ip), vehicle: suspension in saline) is 98 % of control; the T/C (dose: 200.0 mg/kg/injection, schedule: Q01DX009 (ip), vehicle: suspension in saline) was 91 % of control.

Regarding `COC1(OC)C(c2ccc([N+](=O)[O-])cc2)C([N+](=O)[O-])C1(OC)OC` (configuration not stated), the T/C was 90 % of control (dose: 60.0 mg/kg/injection, schedule: Q01DX005 (ip), vehicle: Klucel (hydroxypropylcellulose) (HPC)); 93 % of control (dose: 120.0 mg/kg/injection, schedule: Q01DX005 (ip), vehicle: Klucel (hydroxypropylcellulose) (HPC)); 89 % of control (dose: 240.0 mg/kg/injection, schedule: Q01DX005 (ip), vehicle: Klucel (hydroxypropylcellulose) (HPC)).

Consider `CCCCCCCCC(=O)c1c(OC)oc(/C=N/O)cc1=O`, for which the T/C under setting [2] is 87 % of control.

Turning to `COc1cc(N)ccc1Nc1c2ccccc2nc2ccccc12`, the T/C (dose: 12.5 mg/kg/injection, schedule: Q04DX002 (ip), vehicle: distilled water + Tween-80) is 117 % of control; the T/C (dose: 50.0 mg/kg/injection, schedule: Q04DX002 (ip), vehicle: distilled water + Tween-80) is 165 % of control; the T/C (dose: 100.0 mg/kg/injection, schedule: Q04DX002 (ip), vehicle: distilled water + Tween-80) is 166 % of control and 185 % of control; the T/C (dose: 200.0 mg/kg/injection, schedule: Q04DX002 (ip), vehicle: distilled water + Tween-80) was 194 % of control.

Take `COC1OCCCO1`: the T/C (dose: 60.0 mg/kg/injection, schedule: Q01DX005 (ip), vehicle: saline) is 103 % of control; the T/C (dose: 120.0 mg/kg/injection, schedule: Q01DX005 (ip), vehicle: saline) is 104 % of control; the T/C (dose: 240.0 mg/kg/injection, schedule: Q01DX005 (ip), vehicle: saline) is 107 % of control.

Consider `CC1=C(C)C(=O)C(C(C)(C)CC(=O)n2cc(F)c(=O)[nH]c2=O)=C(C)C1=O`, for which, under “dose: 100.0 mg/kg/injection, schedule: Q01DX001 (ip), vehicle: saline with Tween-80”, the T/C was 111 % of control.

Regarding `COc1cc2c(cc1OC)C(C(=O)O)C1c3cc4c(cc3CCN1C2=O)OCO4` (configuration not stated), the T/C by setting is: (dose: 50.0 mg/kg/injection, schedule: Q04DX003 (ip), vehicle: distilled water + Tween-80) 102 % of control and 115 % of control; (dose: 100.0 mg/kg/injection, schedule: Q04DX003 (ip), vehicle: distilled water + Tween-80) 105 % of control and 100 % of control; (dose: 200.0 mg/kg/injection, schedule: Q04DX003 (ip), vehicle: distilled water + Tween-80) 113 % of control and 100 % of control; (dose: 400.0 mg/kg/injection, schedule: Q04DX003 (ip), vehicle: distilled water + Tween-80) 88 % of control and 100 % of control.

`COc1ccc(C(=O)c2ccccc2)c(OC(=O)Nc2c(Cl)cccc2Cl)c1`: the T/C (dose: 60.0 mg/kg/injection, schedule: Q01DX005 (ip), vehicle: saline with Tween-80) is 93 % of control; the T/C (dose: 120.0 mg/kg/injection, schedule: Q01DX005 (ip), vehicle: saline with Tween-80) is 107 % of control; the T/C (dose: 240.0 mg/kg/injection, schedule: Q01DX005 (ip), vehicle: saline with Tween-80) is 88 % of control.
